Results: BindingDB's records for doi:10.1007/s10822-022-00478-x (Roche Innovation Center Basel, F. Hoffmann-La Roche Ltd., 2022)

Biological target: cAMP and cAMP-inhibited cGMP 3',5'-cyclic phosphodiesterase 10A (Homo sapiens, UniProt Q9Y233)
Assay: PDE10A assay
In short: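 Human PDE10A (2 ng/well) preincubated 15 min RT with compound in HEPES pH 7.5, 10 mM MgCl2, BSA, then reacted 15 min with 50 nM [3H]cGMP/cGMP substrate. Stopped with Y-Si SPA beads; bound radioactivity counted, IC50 from four-parameter logistic, pIC50 = −log10(IC50).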

IC50 [nM]	Structure (SMILES)
2.55	CC(C)n1nc(-c2ccccn2)cc1NC(=O)c1nc(C2CC2)ccc1Nc1cncnc1 [US8470820, 27]
1.24	CC(C)Cn1nc(-c2ccccn2)cc1NC(=O)c1nc(C2CC2)ccc1Nc1cncnc1 [US8470820, 28]
1.71	O=C(Nc1cc(-c2ccccn2)nn1Cc1ccccc1)c1nc(C2CC2)ccc1Nc1cncnc1 [US8470820, 29]
4.73	CCn1nc(-c2ccccn2)cc1NC(=O)c1nc(C2CC2)ccc1Nc1cncnc1 [US8470820, 30]
1.12	O=C(Nc1cc(-c2ccccn2)nn1CC1CCCC1)c1nc(C2CC2)ccc1Nc1cncnc1 [US8470820, 31]
1.06	O=C(Nc1cc(-c2ccccn2)nn1CC1CCCCC1)c1nc(C2CC2)ccc1Nc1cncnc1 [US8470820, 32]
1.51	Cn1cncc1Cn1nc(-c2ccccn2)cc1NC(=O)c1nc(C2CC2)ccc1Nc1cncnc1 [US8470820, 37]
0.18	COCCn1nc(-c2ccccn2)cc1NC(=O)c1nc(C2CC2)ccc1Nc1cncnc1 [US8470820, 38]
3.16	Cn1nc(-c2ccc(Cl)cn2)cc1NC(=O)c1nc(C2CC2)ccc1Nc1cncnc1 [US8470820, 39]
0.08	Cn1nc(-c2ccc3ccccc3n2)cc1NC(=O)c1nc(C2CC2)ccc1Nc1cncnc1 [US8470820, 40]
2.77	Cn1nc(-c2cccc(Cl)n2)cc1NC(=O)c1nc(C2CC2)ccc1Nc1cncnc1 [US8470820, 41]
4.15	CN1CCC(n2nc(-c3ccccn3)cc2NC(=O)c2nc(C3CC3)ccc2Nc2cncnc2)CC1 [US8470820, 43]
1790	COc1ccc(-c2nnc(NC(=O)c3nc(C4CC4)ccc3Nc3cncnc3)s2)cc1 [US8470820, 44]
6200	O=C(Nc1nnc(-c2ccc(F)cc2)s1)c1nc(C2CC2)ccc1Nc1cncnc1 [US8470820, 45]
1.43	O=C(Nc1ccc(-c2ccccn2)s1)c1nc(C2CC2)ccc1Nc1cncnc1 [US8470820, 50]
3.85	O=C(Nc1cc(-c2ccccn2)no1)c1nc(C2CC2)ccc1Nc1cncnc1 [US8470820, 51]
6.57	COCc1ccc(Nc2cncnc2)c(C(=O)Nc2cc(-c3ccccn3)nn2C)n1 [US8470820, 59]
126	Cn1nc(NC(=O)c2nc(C3CC3)ccc2Nc2cncnc2)cc1-c1ccccn1 [US8470820, 63]
2580	O=C(Nc1nnc(-c2ccccn2)o1)c1nc(C2CC2)ccc1Nc1cncnc1 [US8470820, 64]
0.83	CNC(=O)c1c(NC(=O)c2nc(C3CC3)ccc2Nc2cncnc2)cnn1CCOC [US8703768, 11]
33	Cn1cc(NC(=O)c2nc(C3CC3)ccc2Nc2cncnc2)c(C(=O)N2CCC2)n1 [US8703768, 30]
6.78	CN(C)C(=O)c1nn(-c2ccccn2)cc1NC(=O)c1nc(C2CC2)ccc1Nc1cncnc1 [US8703768, 74]

IC50 [nM]	Structure (SMILES)
0.48	O=C(NC1CC1)c1ccsc1NC(=O)c1nc(C2CC2)ccc1Nc1cncnc1 [US8703768, 89]
0.44	O=C(Nc1sccc1C(=O)N1CCOCC1)c1nc(C2CC2)ccc1Nc1cncnc1 [US8703768, 90]
19	CNC(=O)c1c(NC(=O)c2nc(C3CC3)cnc2Nc2cncnc2)cnn1CCC(F)(F)F [US8703768, 173]
0.41	CCc1ccc(NC(=O)c2nc(C3CC3)cnc2Nc2cncnc2)c(C(=O)NCC(C)(C)O)n1 [US8703768, 181]
5.93	CCN(C)C(=O)c1ncccc1NC(=O)c1nc(C2CC2)cnc1Nc1cncnc1 [US8703768, 199]
25	CCN(C)C(=O)c1c(NC(=O)c2nc(C3CC3)cnc2Nc2cncnc2)cnn1C [US8703768, 203]
1.15	CNC(=O)c1cc(C(C)C)ccc1NC(=O)c1nc(C2CC2)cnc1Nc1cncnc1 [US8703768, 208]
0.48	COCc1ccc(NC(=O)c2nc(C3CC3)cnc2Nc2cncnc2)c(C(=O)NCC(C)(C)O)n1 [US8703768, 210]
0.74	COCCOc1ccc(NC(=O)c2nc(C3CC3)cnc2Nc2cncnc2)c(C(=O)NCC(C)(C)O)c1 [US8703768, 213]
0.49	CC(C)(O)CNC(=O)c1cc(OCCO)ccc1NC(=O)c1nc(C2CC2)cnc1Nc1cncnc1 [US8703768, 215]
0.77	CNC(=O)c1cc(OCCO)ccc1NC(=O)c1nc(C2CC2)cnc1Nc1cncnc1 [US8703768, 216]
0.48	CNC(=O)c1cc(OC)ccc1NC(=O)c1nc(C2CC2)cnc1Nc1cncnc1 [US8703768, 225]
141	CNC(=O)c1c(NC(=O)c2nc(OC)cnc2Nc2cncnc2)cnn1C [US8703768, 258]
0.71	CC(C)(O)CNC(=O)c1cc(C#N)ccc1NC(=O)c1nc(C2CC2)cnc1Nc1cncnc1 [US8703768, 262]
0.36	O=C(NCCO)c1ncccc1NC(=O)c1nc(C2CC2)cnc1Nc1cncnc1 [US8703768, 271]
0.31	CC(C)(CO)NC(=O)c1ncccc1NC(=O)c1nc(C2CC2)cnc1Nc1cncnc1 [US8703768, 273]
0.38	CNC(=O)c1cc(NC(C)=O)ccc1NC(=O)c1nc(C2CC2)cnc1Nc1cncnc1 [US8703768, 274]
0.38	CC1(NC(=O)c2ncccc2NC(=O)c2nc(C3CC3)cnc2Nc2cncnc2)COC1 [US8703768, 275]
13	Cc1ccc(NC(=O)c2nc(C3CC3)cnc2Nc2cncnc2)c(C(=O)N(C)C)n1 [US8703768, 276]
0.64	Cc1ncc(NC(=O)c2nc(C3CC3)cnc2Nc2cncnc2)c(C(=O)NCC(C)(C)O)n1 [US8703768, 281]
0.74	CNC(=O)c1cc(F)c(F)cc1NC(=O)c1nc(C2CC2)cnc1Nc1cncnc1 [US8703768, 288]
28	O=C(Nc1cc(F)c(F)cc1C(=O)N1CCC1)c1nc(C2CC2)cnc1Nc1cncnc1 [US8703768, 291]

IC50 [nM]	Structure (SMILES)
0.68	CNC(=O)c1ccc(F)cc1NC(=O)c1nc(C2CC2)cnc1Nc1cncnc1 [US8703768, 292]
0.32	CNC(=O)c1c(F)cc(F)cc1NC(=O)c1nc(C2CC2)cnc1Nc1cncnc1 [US8703768, 299]
0.92	CN(C)C(=O)c1c(F)cccc1NC(=O)c1nc(C2CC2)cnc1Nc1cncnc1 [US8703768, 308]
1.67	O=C(Nc1cccc(F)c1C(=O)N1CCC1)c1nc(C2CC2)cnc1Nc1cncnc1 [US8703768, 309]
19	CCN(C)c1cnc(Nc2cncnc2)c(C(=O)Nc2cnn(C)c2C(=O)NC)n1 [US8703768, 311]
0.95	CNC(=O)c1cc(F)ccc1NC(=O)c1nc(C2CC2)cnc1Nc1cncnc1 [US8703768, 312]
51	CN(C)CCNC(=O)c1c(NC(=O)c2nc(C3CC3)cnc2Nc2cncnc2)cnn1C [US8703768, 313]
0.59	CCOC(=O)CCc1ccc(NC(=O)c2nc(C3CC3)cnc2Nc2cncnc2)c(C(=O)NC)c1 [US8703768, 321]
0.39	CNC(=O)c1cc(CCC(=O)O)ccc1NC(=O)c1nc(C2CC2)cnc1Nc1cncnc1 [US8703768, 328]
0.75	Cn1ncc(NC(=O)c2nc(C3CC3)cnc2Nc2cncnc2)c1C(=O)N1CCCO1 [US8703768, 335]
17	Cc1nn2ccc(CCc3nc(N4CCCC4)nn3C)nc2c1C [US9617271, 53]
0.64	Cc1cc(C#Cc2nc(N3CCCC3)nn2C)nn2c(C)c(C(F)(F)F)nc12 [US9617271, 54]
9.21	Cc1cn2nc(C#Cc3nc(N4CCCC4)nn3C)ccc2n1 [US9617271, 67]
21	Cn1cc(-c2ccccc2)nc1CCc1cnc2ccccc2n1 [US9834564, Compound 20]
12	Cn1cc(-c2ccccc2)nc1C#Cc1ccc2nc(C(F)(F)F)cn2n1 [US10399985, Example 8]
2.4	Cc1nc2c(C)c(C)c(CCc3nc(-c4ccccc4)cn3C)nn2c1C [US10399985, Example 14]
21	Cc1nc2ccc(CCc3nc(-c4ccccc4)cn3C)nn2c1CO [US10399985, Example 15]
4.89	Cc1nn2ccc(CCc3nc(-c4ccccc4)cn3C)nc2c1C [US10399985, Example 16]
5.6	Cc1c(C(F)F)nc2ccc(CCc3nc(-c4ccccc4)cn3C)nn12 [US10399985, Example 19]
34	Cc1c(C(F)(F)F)nc2ccc(OCc3nc(-c4ccccc4)cn3C)nn12 [US10399985, Example 36]
